Activity calls are given as the source filed them. The rule behind the calls is not given here.
Key:
[1] = Octanol-buffer partition coefficient, log D of the compound at pH 7.4 after 30 mins by shake-flask method; format: physicochemical
[2] = Plasma clearance in mouse at 1 to 3 mg/kg; format: ADME, organism-based; design: dose 1-3 mg/kg
Salmonella typhimurium = test: Genotoxicity in Salmonella typhimurium by Ames test; format: toxicity, organism-based; settings: salmonella enterica subsp. enterica serovar typhimurium
[3] = Drug excretion in bile duct cannulated rat bile assessed as compound remaining by HPLC analysis; format: ADME, tissue-based; settings: in vivo
[4] = Aqueous solubility of crystalline form of compound in phosphate buffer at pH 7.4 after 24 hrs by LC-UV analysis; format: physicochemical
[5] = Inhibition of N-terminal 6-His-tagged dog full length 11beta-HSD1 assessed as conversion of cortisone to cortisol after 25 mins by HTRF assay; design: species or system Canis lupus familiaris
CYP2D6 = CYP2D6 (Homo sapiens, UniProt P10635); test: Inhibition of CYP2D6 (unknown origin) at 10 uM relative to control; format: ADME
[6] = Fraction unbound in mouse plasma by equilibrium dialysis technique; format: ADME, cell-free
[7] = target: 11-beta-hydroxysteroid dehydrogenase 1 (Rattus norvegicus, UniProt P16232); test: Inhibition of N-terminal 6-His-tagged rat full length 11beta-HSD1 assessed as conversion of cortisone to cortisol after 25 mins by HTRF assay
[8] = Drug metabolism in rat hepatocytes assessed as compound remaining by LC-MS/MS analysis; format: ADME, cell-based, Hepatocyte
[9] = Inhibition of N-terminal 6-His-tagged cynomolgus monkey full length 11beta-HSD1 assessed as conversion of cortisone to cortisol after 25 mins by HTRF assay; design: species or system Macaca fascicularis
[10] = Apparent permeability from basolateral to apical side in MDCK cells at 10 uM; format: ADME, cell-based, Canis lupus familiaris; settings: dog
[11] = Apparent permeability from apical to basolateral side in MDCK cells at 10 uM; format: ADME, cell-based, Canis lupus familiaris; settings: dog
[12] = target: Voltage-gated inwardly rectifying potassium channel KCNH2 (Homo sapiens, UniProt Q12809); test: Inhibition of human ERG
[13] = target: 11-beta-hydroxysteroid dehydrogenase 1 (Homo sapiens, UniProt P28845)
Description: Inhibition of N-terminal 6-His-tagged human full length 11beta-HSD1 assessed as conversion of cortisone to cortisol after 25 mins by HTRF assay

[14] = Half life in rat at 1 to 3 mg/kg, iv; format: ADME, organism-based; design: dose 1-3 mg/kg, route intravenous; settings: in vivo
L5178Y = test: Mutagenicity in mouse L5178Y cells by mouse lymphoma assay; format: toxicity, cell-based
[15] = target: T1, 17-beta-hydroxysteroid dehydrogenase type 3 (Homo sapiens, UniProt P37058); test: Inhibition of recombinant 17beta-HSD3 (unknown origin) assessed as conversion of androstenedione to testosterone after 90 mins by scintillation counting analysis
T1 sequence (P37058 whole entry): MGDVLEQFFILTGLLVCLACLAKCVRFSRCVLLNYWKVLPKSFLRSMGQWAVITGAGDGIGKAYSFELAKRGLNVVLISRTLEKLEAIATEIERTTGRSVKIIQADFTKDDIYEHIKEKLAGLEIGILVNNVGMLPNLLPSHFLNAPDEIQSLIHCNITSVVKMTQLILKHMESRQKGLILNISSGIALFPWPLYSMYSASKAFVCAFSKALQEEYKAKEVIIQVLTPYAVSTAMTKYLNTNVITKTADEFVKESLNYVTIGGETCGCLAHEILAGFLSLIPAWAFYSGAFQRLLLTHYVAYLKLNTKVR

[16] = Half life in dog at 1 to 3 mg/kg, iv; format: ADME, organism-based, Canis lupus familiaris; design: dose 1-3 mg/kg, route intravenous; settings: in vivo
[17] = Drug metabolism in human hepatocytes assessed as compound remaining by LC-MS/MS analysis; format: ADME, cell-based, Hepatocyte
[18] = Half life in mouse at 1 to 3 mg/kg, iv; format: ADME, organism-based; design: dose 1-3 mg/kg, route intravenous; settings: in vivo
[19] = Fraction unbound in rat plasma by equilibrium dialysis technique; format: ADME, cell-free
[20] = Drug metabolism in dog hepatocytes assessed as compound remaining by LC-MS/MS analysis; format: ADME, cell-based, Canis lupus familiaris, Hepatocyte
[21] = Volume of distribution at steady state in rat at 1 to 3 mg/kg; format: ADME, organism-based; design: dose 1-3 mg/kg; settings: in vivo, read-out: Vdss
Mus musculus = test: Ex vivo inhibition of 11beta-HSD1-mediated conversion of [3H]-cortisone to [3H]-cortisol in C57Bl6J mouse liver at 30 mg/kg, po by scintillation counting analysis; format: functional, organism-based; design: dose 30 mg/kg
[22] = Clearance in rat; format: ADME, organism-based; settings: in vivo
[23] = Plasma clearance in rat at 1 to 3 mg/kg; format: ADME, organism-based; design: dose 1-3 mg/kg
[24] = Volume of distribution at steady state in dog at 1 to 3 mg/kg; format: ADME, organism-based, Canis lupus familiaris; design: dose 1-3 mg/kg; settings: in vivo, read-out: Vdss
[25] = target: Sigma non-opioid intracellular receptor 1 (Homo sapiens, UniProt Q99720); test: Inhibition of sigma-1 receptor (unknown origin)
[26] = Half life in dog at 1 to 3 mg/kg, po; format: ADME, organism-based, Canis lupus familiaris; design: dose 1-3 mg/kg, route oral; settings: in vivo
[27] = Drug excretion in bile duct cannulated rat urine assessed as compound remaining by HPLC analysis; format: ADME, tissue-based; settings: read-out: Stability
[28] = Half life in rat at 1 to 3 mg/kg, po; format: ADME, organism-based; design: dose 1-3 mg/kg, route oral; settings: in vivo
CYP2C9 = CYP2C9 (Homo sapiens, UniProt P11712); test: Inhibition of CYP2C9 (unknown origin) at 10 uM relative to control; format: ADME
[29] = target: 11-beta-hydroxysteroid dehydrogenase 1 (Mus musculus, UniProt P50172); test: Inhibition of N-terminal 6-His-tagged mouse full length 11beta-HSD1 assessed as conversion of cortisone to cortisol after 25 mins by HTRF assay
[30] = Half life in mouse at 1 to 3 mg/kg, po; format: ADME, organism-based; design: dose 1-3 mg/kg, route oral; settings: in vivo
[31] = target: T2, 17-beta-hydroxysteroid dehydrogenase type 1 (Homo sapiens) (UniProt P14061); test: Inhibition of recombinant 17beta-HSD1 (unknown origin) assessed as conversion of estrone to estradiol at 10 uM after 20 mins by scintillation counting analysis relative to control
T2 sequence (whole entry): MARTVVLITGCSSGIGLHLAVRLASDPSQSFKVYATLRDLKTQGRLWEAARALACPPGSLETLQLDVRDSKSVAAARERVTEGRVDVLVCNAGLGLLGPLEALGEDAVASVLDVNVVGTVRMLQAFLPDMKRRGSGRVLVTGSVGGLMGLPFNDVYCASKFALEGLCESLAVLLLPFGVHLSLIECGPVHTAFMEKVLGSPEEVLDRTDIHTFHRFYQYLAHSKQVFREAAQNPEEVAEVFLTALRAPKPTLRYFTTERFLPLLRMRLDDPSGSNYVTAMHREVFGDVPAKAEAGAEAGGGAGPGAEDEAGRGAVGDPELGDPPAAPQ

Sequence of CYP2C9 (P11712 whole entry): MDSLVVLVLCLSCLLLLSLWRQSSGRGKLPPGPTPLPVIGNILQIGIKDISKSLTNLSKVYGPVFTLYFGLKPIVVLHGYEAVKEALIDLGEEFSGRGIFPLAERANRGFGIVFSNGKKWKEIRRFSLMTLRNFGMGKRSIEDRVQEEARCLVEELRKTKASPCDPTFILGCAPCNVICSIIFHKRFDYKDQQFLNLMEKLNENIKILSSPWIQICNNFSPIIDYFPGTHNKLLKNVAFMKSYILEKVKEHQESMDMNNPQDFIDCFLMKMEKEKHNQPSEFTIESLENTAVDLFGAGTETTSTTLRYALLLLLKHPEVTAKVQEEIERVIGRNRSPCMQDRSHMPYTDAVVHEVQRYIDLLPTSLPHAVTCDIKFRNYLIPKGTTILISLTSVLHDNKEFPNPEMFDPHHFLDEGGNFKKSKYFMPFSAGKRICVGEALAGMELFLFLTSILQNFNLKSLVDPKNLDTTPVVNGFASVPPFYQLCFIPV
Sequence of Voltage-gated inwardly rectifying potassium channel KCNH2 (Q12809 whole entry): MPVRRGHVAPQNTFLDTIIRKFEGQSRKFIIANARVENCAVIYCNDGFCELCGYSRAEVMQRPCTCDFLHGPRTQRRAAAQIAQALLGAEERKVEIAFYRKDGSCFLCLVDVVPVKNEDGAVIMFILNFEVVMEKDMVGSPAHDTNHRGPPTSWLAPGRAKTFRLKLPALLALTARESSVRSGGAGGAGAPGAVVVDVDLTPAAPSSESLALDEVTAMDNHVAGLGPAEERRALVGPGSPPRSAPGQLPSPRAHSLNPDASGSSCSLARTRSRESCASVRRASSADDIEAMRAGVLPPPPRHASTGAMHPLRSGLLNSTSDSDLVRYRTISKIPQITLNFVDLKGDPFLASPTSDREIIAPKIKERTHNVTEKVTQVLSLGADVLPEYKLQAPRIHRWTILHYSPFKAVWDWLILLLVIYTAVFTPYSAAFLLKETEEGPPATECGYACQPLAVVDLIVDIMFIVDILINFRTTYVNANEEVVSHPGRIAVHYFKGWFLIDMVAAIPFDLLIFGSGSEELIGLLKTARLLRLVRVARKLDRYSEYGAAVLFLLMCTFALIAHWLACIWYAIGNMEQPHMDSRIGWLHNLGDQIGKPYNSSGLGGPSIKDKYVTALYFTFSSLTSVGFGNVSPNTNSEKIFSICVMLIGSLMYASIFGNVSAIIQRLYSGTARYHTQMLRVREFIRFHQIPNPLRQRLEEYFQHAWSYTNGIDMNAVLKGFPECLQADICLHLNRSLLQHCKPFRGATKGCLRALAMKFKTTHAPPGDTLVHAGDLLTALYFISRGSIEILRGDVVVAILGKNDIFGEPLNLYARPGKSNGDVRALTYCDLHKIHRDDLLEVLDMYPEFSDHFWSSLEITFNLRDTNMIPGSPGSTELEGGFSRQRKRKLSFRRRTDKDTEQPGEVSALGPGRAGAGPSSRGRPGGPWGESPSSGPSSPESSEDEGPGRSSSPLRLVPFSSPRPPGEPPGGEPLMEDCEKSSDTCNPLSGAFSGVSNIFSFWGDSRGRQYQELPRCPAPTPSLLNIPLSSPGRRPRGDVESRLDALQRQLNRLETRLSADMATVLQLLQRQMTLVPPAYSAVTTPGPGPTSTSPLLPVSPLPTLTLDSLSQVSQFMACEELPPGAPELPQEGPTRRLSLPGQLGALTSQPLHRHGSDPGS
Sequence of 11-beta-hydroxysteroid dehydrogenase 1 (Homo sapiens, UniProt P28845) (P28845 whole entry): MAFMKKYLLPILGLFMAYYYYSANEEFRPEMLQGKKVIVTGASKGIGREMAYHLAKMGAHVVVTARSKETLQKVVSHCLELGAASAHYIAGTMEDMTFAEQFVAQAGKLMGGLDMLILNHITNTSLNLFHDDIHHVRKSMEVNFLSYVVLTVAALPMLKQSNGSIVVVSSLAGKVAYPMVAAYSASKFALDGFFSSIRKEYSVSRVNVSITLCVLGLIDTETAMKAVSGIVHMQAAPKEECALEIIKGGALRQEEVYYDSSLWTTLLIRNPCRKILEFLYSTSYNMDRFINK
Sequence of 11-beta-hydroxysteroid dehydrogenase 1 (Rattus norvegicus, UniProt P16232) (P16232 whole entry): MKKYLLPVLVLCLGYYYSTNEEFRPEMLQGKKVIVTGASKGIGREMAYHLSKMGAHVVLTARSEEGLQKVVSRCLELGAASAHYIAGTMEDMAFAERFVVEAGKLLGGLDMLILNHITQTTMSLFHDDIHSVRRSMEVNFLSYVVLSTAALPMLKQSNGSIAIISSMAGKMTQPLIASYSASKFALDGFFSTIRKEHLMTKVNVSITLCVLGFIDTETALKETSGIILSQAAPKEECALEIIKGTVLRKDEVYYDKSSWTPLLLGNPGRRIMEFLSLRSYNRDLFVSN
Sequence of 11-beta-hydroxysteroid dehydrogenase 1 (Mus musculus, UniProt P50172) (P50172 whole entry): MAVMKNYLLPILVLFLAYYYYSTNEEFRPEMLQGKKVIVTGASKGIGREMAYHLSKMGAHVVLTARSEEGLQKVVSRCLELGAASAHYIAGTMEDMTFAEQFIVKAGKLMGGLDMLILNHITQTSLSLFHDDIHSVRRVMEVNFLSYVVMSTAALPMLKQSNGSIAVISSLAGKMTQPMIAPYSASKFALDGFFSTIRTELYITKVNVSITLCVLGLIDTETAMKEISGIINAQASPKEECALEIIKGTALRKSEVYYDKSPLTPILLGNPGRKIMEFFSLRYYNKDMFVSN
Sequence of Sigma non-opioid intracellular receptor 1 (Q99720 whole entry): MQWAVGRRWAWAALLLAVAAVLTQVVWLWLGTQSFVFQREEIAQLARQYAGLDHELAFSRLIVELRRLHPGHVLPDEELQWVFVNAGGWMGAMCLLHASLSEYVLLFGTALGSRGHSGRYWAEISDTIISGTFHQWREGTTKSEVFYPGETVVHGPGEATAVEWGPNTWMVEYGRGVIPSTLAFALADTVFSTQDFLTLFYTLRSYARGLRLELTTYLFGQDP
Sequence of CYP2D6 (P10635 whole entry): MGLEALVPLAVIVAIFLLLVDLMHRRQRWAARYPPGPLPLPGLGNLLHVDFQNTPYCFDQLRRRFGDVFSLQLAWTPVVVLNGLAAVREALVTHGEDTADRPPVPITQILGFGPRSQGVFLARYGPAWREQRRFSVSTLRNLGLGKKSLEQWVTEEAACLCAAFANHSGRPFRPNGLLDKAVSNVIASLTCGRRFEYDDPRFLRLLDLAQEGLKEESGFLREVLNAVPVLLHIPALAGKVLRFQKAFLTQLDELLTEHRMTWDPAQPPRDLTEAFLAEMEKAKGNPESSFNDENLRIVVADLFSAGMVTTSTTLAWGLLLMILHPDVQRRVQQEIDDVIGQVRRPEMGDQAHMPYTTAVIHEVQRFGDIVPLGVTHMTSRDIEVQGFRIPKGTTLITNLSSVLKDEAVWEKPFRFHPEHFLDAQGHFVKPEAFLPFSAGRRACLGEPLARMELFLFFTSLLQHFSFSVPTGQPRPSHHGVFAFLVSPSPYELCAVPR

**Q.** Which logD at 0.5 h [1] does the source give for CSc1nc(N2C[C@@H]3[C@H](C2)[C@H]3C(=O)O)ccc1C(=O)NC12CC3CC(CC(C3)C1)C2 here?
**A.** 2.1

**Q.** What about the clearance [2] of the same molecule?
**A.** 9 mL/min/kg

**Q.** And the Activity (Salmonella typhimurium)?
**A.** Non-toxic

**Q.** And the Stability [3]?
**A.** 52.8%

**Q.** What about the solubility thermodynamic at 24 h [4] of the same molecule?
**A.** > 3000 µM

**Q.** What about the IC50 [5] of the same molecule?
**A.** 120 nM

**Q.** And the inhibition at 10 µM (CYP2D6)?
**A.** < 25%

**Q.** And the fraction unbound [6]?
**A.** 0.023

**Q.** And the IC50 [7]?
**A.** 82 nM

**Q.** And the Stability [8]?
**A.** 82%

**Q.** What about the IC50 [9] of the same molecule?
**A.** 20 nM

**Q.** What about the Papp B→A at 10 µM [10] of the same molecule?
**A.** 13 ×10⁻⁶ cm/s

**Q.** And the Papp A→B at 10 µM [11]?
**A.** 21 ×10⁻⁶ cm/s

**Q.** And the IC50 [12]?
**A.** > 30000 nM

**Q.** What about the IC50 [13] of the same molecule?
**A.** 6 nM

**Q.** And the half-life [14]?
**A.** 4.3 h

**Q.** And the Activity (L5178Y)?
**A.** Non-toxic

**Q.** And the IC50 [15]?
**A.** 25000 nM

**Q.** What about the half-life [16] of the same molecule?
**A.** 15 h

**Q.** And the Stability [17]?
**A.** 94%

**Q.** What about the half-life [18] of the same molecule?
**A.** 2.5 h

**Q.** And the fraction unbound [19]?
**A.** 0.017

**Q.** What about the Stability [20] of the same molecule?
**A.** 92%

**Q.** And the Vd [21]?
**A.** 0.9 L/kg

**Q.** What about the inhibition (Mus musculus) of the same molecule?
**A.** Active

**Q.** And the clearance [22]?
**A.** 6 mL/min/kg

**Q.** And the clearance [23]?
**A.** 6 mL/min/kg

**Q.** And the Vd [24]?
**A.** 0.7 L/kg

**Q.** And the IC50 [25]?
**A.** 30000 nM

**Q.** What about the half-life [26] of the same molecule?
**A.** 27 h

**Q.** And the dose excreted [27]?
**A.** 7.6%

**Q.** And the half-life [28]?
**A.** 4.3 h

**Q.** What about the inhibition at 10 µM (CYP2C9) of the same molecule?
**A.** < 25%

**Q.** What about the IC50 [29] of the same molecule?
**A.** 310 nM

**Q.** And the half-life [30]?
**A.** 2.5 h

**Q.** And the inhibition [31]?
**A.** 20%

Reference: ChEMBL document CHEMBL3217743, “Reduction of acyl glucuronidation in a series of acidic 11-hydroxysteroid dehydrogenase type 1 (11-HSD1) inhibitors: the discovery of AZD6925” (Medchemcomm, 2012)
